From patent US5807819A, “Peptides useful for altering bone resorption” (priority 1995, dated 1998)
pIC50: −log10 of the molar value. Where a SMILES comes first, the peptide text is derived from it. Bridges are numbered along the chain shown (N, C = ends). [ ]: non-standard residue; d: D form. Tic = O=C(O)[C@@H]1Cc2ccccc2CN1; Pen = CC(C)(S)[C@H](N)C(=O)O; Mpa = O=C(O)CCS

How the values were obtained:
[1] = Parathyroid hormone-induced hypercalcemia in mice; assay type: in vivo, Swiss-Webster mice; details: parathyroidectomized mice, 4 hr i.v. peptide infusion, FIG. 9
From the text: Parathyroid hormone (PTH) activates osteoclasts, which are involved in bone resorption. Associated with the increased osteoclast activity is an increase in serum calcium. The PTH-induced hypercalcemia assay measures the level of serum calcium, which is an indication of bone resorption in a subject (Fischer et al., Endocrinology 132:1411-1413 (1993), which is incorporated herein by reference).
Swiss-Webster mice, which had been parathyroidectomized two weeks prior to beginning the assay, were obtained from Taconic Lab Animals and Services (Germantown N.Y.). Femoral vein catheters (PE-50 fused with PE10 polyethylene tubing; Becton Dickinson; Parsippany, N.J.) were installed in the mice, flushed and locked with heparinized saline (1:10), sutured to adjacent muscle and internalized within the inguinal space of the incision before closing the incision with wound clips. […]
The experiment was initiated by feeding the mice a calcium-deficient diet overnight, then injecting the mice the following morning with a bolus of 0.2 mg PTH/kg (hPTH 1-34; Bachem; Torrance Calif.), intravenously. […] Various doses of a peptide or vehicle were infused into an animal for 4 hr, then ionized serum calcium again was measured. […] Serum calcium measurements were expressed as the difference between the value 30 min before the PTH pulse and 4 hr after peptide infusion was started. […]

αV β3 integrin receptor [2] = test: Series of in vitro assays of Example II for potency and selectivity (FIG. 2); details: for receptor selectivity classification / potency classification: summary of assays; for activity (FIG. 2): minimal-element peptides
From the text: Such peptides can include, for example, peptides within the pharmacophore groups exemplified herein or peptides within other pharmacophore groups. […] The selectivity of a peptide for an integrin receptor involved in osteoclast binding to bone can be determined, for example, using the integrin receptor assays and cell attachment and detachment assays described herein.
Comparison of the IC50 values generated using the JY cell assay and the αV β3 ELISA, which measure binding of the αV β3 receptor involved in osteoclast binding to bone, with the αV β5 and α5 β1 receptor-specific ELISAs, which represent receptors that likely are not involved in osteoclast attachment, provides insight into the receptor selectivity of the peptides.

[3] = test system: platelet αIIb β3 integrin receptor; test: Platelet aggregation assay; assay type: cell-based; details: ADP-induced, platelet-rich plasma from heparinized blood; read-out: IC50 inhibiting platelet aggregation
Procedure: This example provides a method for performing a platelet aggregation assay, which is a measure of peptide binding to the platelet αIIb β3 integrin receptor.
Platelet-rich plasma (PRP) was prepared fresh from heparinized whole blood. 0.6 ml PRP was placed in a 1.5 ml microcentrifuge tube and centrifuged for 4 min at 14,000×g. Following centrifugation, 0.5 ml supernatant (platelet poor plasma; PPP) was transferred to a 1 ml silicon coated aggregometer tube (Chrono-Log Corp.; Havertown Pa.) and placed in the PPP slot of a Chrono-Log Model 400VS aggregometer (see Tschopp et al., Thromb. Haem. 72:119-124 (1994), which is incorporated herein by reference).
Platelet concentration of the PRP sample was determined using a cell counter and the sample was diluted with homologous PPP to obtain 300,000 platelets/μl. 0.5 ml of the diluted PRP was placed in an aggregometer tube with a stir bar and incubated for 5 min at 37° C. without stirring. The tube was transferred to the PRP slot in the aggregometer and the sample was stirred at 1200 rpm for 5-10 min at 37° C. […]
Platelet aggregation was initiated by adding adenosine diphosphate (ADP) to a concentration of 10 μM. Platelet aggregation was measured in 2 mm units from baseline (before ADP addition) to response at two min from the time of ADP addition or maximal response (if before 2 min), whichever is larger. […]

chick osteoclasts = test: Chick cell detachment assay (osteoclasts vs total cells); assay type: cell-based; details: FIG. 5, serum-coated plates
Procedure: Peptides were evaluated for their ability to detach osteoclasts from a matrix consisting of serum-coated microtiter plates.
Briefly, chick long bones (femur and tibia) were dissected free of soft tissue and minced in prewarmed minimum essential medium (MEM, pH 7.2; Irvine Scientific; Irvine, Calif.) with Earl's salts, supplemented with 10% heat-inactivated fetal calf serum (FCS) and 200 mM glutamine and containing 100 μg/ml streptomycin and 100 IU/ml penicillin. Cells were removed from bone fragments by vigorous shaking in a capped centrifuge tube. Large particulate material was allowed to settle prior to removal of the cell suspension. After repeated agitation of the cells with a large transfer pipette, 100 μl aliquots of cells were added in triplicate to Corning 96 well microtiter plates that had been preincubated for 1 hr with 100 μl of MEM/FCS media.
The cells were incubated for 90 min at 37° C. in an atmosphere containing 10% CO2. Following incubation, the cell layers were carefully washed 2× with 200 μl sterile PBS, then 100 μl of fresh MEM/FCS was added. Peptides were diluted in the same medium and added to each well. The cells were incubated overnight as described above. […] 5 min using 0.1% crystal violet and multinucleated osteoclasts were counted by light microscopy. […]

rat osteoclasts = test: Rat osteoclast attachment assay compared with MG63/NRK cell attachment; assay type: cell-based; details: FIGS. 7 and 8, FCS substrate
Procedure: To determine the effect of a peptide on the attachment of rat osteoclasts in vitro, 100 μl aliquots of the rat pup bone cell suspension described in Example II.B.2., above, were added in triplicate to 96 well "MAXISORP" plates coated with specific substrates or with FCS. Substrate coated plates were used to determine the ability of peptides to inhibit attachment or induce detachment of an osteoclast from a ligand such as vitronectin, fibronectin, osteopontin or collagen I (Collaborative Research), which are ligands present in bone. Substrates were added to 96 well plates (50 μl of a 5-10 μg/ml solution in sodium carbonate, pH 9.5) and incubated for 2 hr at 37° C. For FCS control wells, 100 μl 10% FCS was added. Wells were aspirated, then washed 2× with PBS and blocked with 1% bovine serum albumin in PBS for 2 hr at 37° C. Wells were aspirated and washed again 2× with PBS. Cells were seeded in duplicate at 4×10^4 cells/well. […]
Following incubation, the medium and nonadherent cells were removed by aspiration from each well. […] Adherent osteoclasts were counted by light microscopy. […]
MG63 and NRK cell lines were purchased from ATTC (Rockville Md.). […] Following staining, the stain was extracted with 20% acetic acid and the OD562 of the extracted stain was determined. […]
Selectivity of a peptide can be determined by comparing the results of FIGS. 7 and 8 (see, also FIG. 2).

αV β3 integrin receptor [4] = details: rabbit, in vivo; cited from earlier work

CC(C)[C@@H]1NC(=O)[C@H](CC(=O)O)NC(=O)[C@H](CC(=O)O)NC(=O)CNC(=O)[C@H](CCCNC(=N)N)NC(=O)CCSSC[C@@H](C(N)=O)NC1=O [compound 191] ([Mpa]RGDDVC-NH2; disulfide 1-7)
PTH-induced rise in serum ionized calcium [1]: decreased the PTH-induced rise in serum ionized calcium in a dose responsive manner

CC(=O)N[C@H]1CSSC(C)(C)[C@@H](C(N)=O)NC(=O)[C@@H]2CCCN2C(=O)[C@H](CC(N)=O)NC(=O)[C@H](CC(=O)O)NC(=O)CNC(=O)[C@H](CCCNC(=N)N)NC1=O [compound 228] (Ac-CRGDNP[Pen]-NH2; disulfide 1-7)
receptor selectivity classification (αV β3 integrin receptor [2]): particularly receptor selective

CC(=O)N[C@H]1CSSC[C@@H](C(N)=O)NC(=O)[C@@H]2Cc3ccccc3CN2C(=O)[C@H](CO)NC(=O)[C@H](CC(=O)O)NC(=O)CNC(=O)[C@H](CCCNC(=N)N)NC1=O [compound 812, Ac-CRGDS(Tic)C-NH2] (Ac-CRGDS[Tic]C-NH2; disulfide 1-7)
activity (FIG. 2) (αV β3 integrin receptor [2]): demonstrate activity | potency classification (αV β3 integrin receptor [2]): particularly potent

COc1ccc(C[C@@H]2NC(=O)[C@H](CC(=O)O)NC(=O)CNC(=O)[C@H](CCCNC(=N)N)NC(=O)CC[C@@H](C(N)=O)NC(=O)[C@H](CCCNC(=N)N)NC2=O)cc1 [compound 940, RGD(YOMe)RE-NH2]
pIC50 [3]: 6.09

CC(=O)N[C@@H]1C(=O)N[C@@H](Cc2ccccc2)C(=O)N[C@@H](C)C(=O)N[C@@H](CCCNC(=N)N)C(=O)NCC(=O)N[C@@H](CC(=O)O)C(=O)N[C@@H](CC(N)=O)C(=O)N2CCC[C@H]2C(=O)N[C@H](C(N)=O)CSSC1(C)C [peptide 214] (Ac-[Pen]FARGDNPC-NH2; disulfide 1-9)
potency classification (αV β3 integrin receptor [2]): particularly potent

CC(C)[C@@H]1NC(=O)[C@H](CC(=O)O)NC(=O)[C@H](CC(=O)O)NC(=O)CNC(=O)[C@H](CCCNC(=N)N)NC(=O)CC[C@@H](C(N)=O)NC1=O [peptide 386, RGDDVE-NH2] (RGDDVE-NH2; lactam N-6)
selective detachment of osteoclasts compared to other cell types (chick osteoclasts): caused selective detachment of osteoclasts as compared to other cell types | activity (FIG. 2) (αV β3 integrin receptor [2]): demonstrate activity | receptor selectivity classification (αV β3 integrin receptor [2]): particularly receptor selective | selectivity: osteoclast attachment versus MG63 or NRK attachment (rat osteoclasts): highly active on osteoclast attachment but were less active on MG63 or NRK attachment | PTH-induced rise in serum ionized calcium [1]: relatively low level of serum calcium

G(Pen)GRGDSPCA
neointimal hyperplasia (αV β3 integrin receptor [4]): can inhibit neointimal hyperplasia
